Experimental data reported in patent publication US20100029542A1, “PROTEIN STERILISATION BY RADIATION AND ADDITION OF A STABILISING COMPOSITION” (priority 2006, published 2010).
Where two headings read alike, the source gives them in different places. Where a SMILES comes first, the peptide text is derived from it.

Assays:
human growth hormone = target: T1, human growth hormone (Homo sapiens, UniProt P01241); assay: Recovery of structural integrity of human growth hormone in dry formulations following gamma irradiation (HPLC); type: physicochemical; conditions: structural integrity by HPLC, human growth hormone 2.5 mg mL^−1 prior to drying, 25-40 kGy
T1 construct: purchased National Institute of Biological Standards and Control; further samples on prescription from a GP surgery
Description: (§1) In each example, an aqueous solution of a protein was prepared with selected additives in an Eppendorf tube or in a glass vial. Water was removed from the formulation by drying under a stream of nitrogen at 30° C. and subsequent incubation at atmospheric pressure in the presence of a dessicant. The Eppendorf tubes or the glass vials were sealed and delivered to an industrial sterilisation service for gamma irradiation, with a dose range typical for sterile medical products. The gamma-irradiated samples were reconstituted on their return and analysed for protein activity or structural integrity. The results were compared with those achieved using control (i.e. non-irradiated) samples.
(§2) The dry samples (approx. 20 μg in an Eppendorf tube) were gamma-irradiated by an industry-standard commercial sterilising service provided by Isotron PLC (Swindon, Wilts, UK), using a Cobalt 60 gamma source at ambient temperature. The radiation dose was in the range of 25-40 kGy.
Mobile phase was prepared by mixing 71 parts (by volume) of a solution of TRIS (0.05 M, in water adjusted with hydrochloric acid to a pH of 7.5) and 29 parts (by volume) of n-propylalcohol. The mobile phase was filtered prior to its use. The liquid chromatograph (Agilent 1100 series) was equipped with a 214 nm detector and a 4.6×250 mm column (Phenomenex 00G-4167-E0) packed with butylsilyl silica gel with a granulometry of 5 μm and a porosity of 30 nm, maintained at 45° C. The flow rate was maintained at 0.5 mL min^−1. 15 μL of aqueous samples of human growth hormone (typically 1-2.5 mg mL^−1) were injected. Results were expressed as % of peak area corresponding to the gamma irradiated sample with respect to that measured in non-irradiated sample.

glucose oxidase = target: T2, glucose oxidase (Aspergillus niger, UniProt P13006); assay: Activity recovery of glucose oxidase in dry formulations following gamma irradiation; type: physicochemical; conditions: glucose oxidase 350 μg mL^−1 prior to drying, dry, 25-40 kGy
T2 construct: purchased Biocatalysts G575P
Description: as §1, §2
(§3) The original solutions (i.e. solutions prior to drying) contained 350 μg mL^−1 of glucose oxidase and typically the total of 100 mM of protective compounds (i.e. 100 mM in case of a single compound, 50 mM+50 mM in case of two compounds, 33.3 mM+33.3 mM+33.3 mM in the case of three compounds etc.). The solutions were dried and gamma irradiated. Following the gamma irradiation, the samples, both pre- and post-gamma irradiated, were assayed for glucose oxidase activity. This was performed according to the following procedure:
Water was added to the sample to achieve 350 μg mL^−1 of glucose oxidase. 50 μL of the solution was added to 50 mL of deionised water. The following solutions were then added: • 10 mL of reagent mix (5 parts of 0.1 M sodium phosphate, pH 6+4 parts 2% w/w starch+1 part of 1 mg/mL lactoperoxidase enzyme); • 5 mL of 100 mM potassium iodide; and • 5 mL of 20% w/w glucose solution.
These were mixed together quickly. Time=0 was counted from the addition of the glucose. After 5 min, 1 ml of 5 M aq. hydrochloric acid was added to stop the reaction. The absorbance was then read at 630 nm using a Unicam UV-visible spectrophotometer (Type: Helios gamma). If the colour intensity was too great to allow an accurate reading, the sample was diluted with a defined volume of deionised water to bring the colour back on scale. The results were expressed as percentage recovery, by reference to the absorbance measured in the pre-gamma irradiation samples.

Sandostatin = assay: Recovery of structural integrity of Sandostatin in dry formulations following gamma irradiation (HPLC); type: physicochemical; conditions: structural integrity by HPLC, excipient:Sandostatin weight ratio 10:1, 25-40 kGy
Description: as §1, §2
Mobile phase A was 0.1 M triethylamine adjusted to pH 2.3 with phosphoric acid. Mobile phase B was acetonitrile. The mobile phases were filtered prior to their use. The following linear gradient was used: time 0: 90% A+10% B; time 35 min: 60% A+40% B. The liquid chromatograph (Agilent 1100 series) was equipped with a 214 nm detector, guard column and a 4.6×150 mm C18 column with a granulometry of 5 μm and a porosity of 30 nm, maintained at ambient temperature. The flow rate was maintained at 1.0 mL min^−1. Injection volume was 50 μL (typically sandostatin at 200 μg mL^−1). Results were expressed as % of main peak area (i.e. area of the peak corresponding to intact sandostatin measured in the gamma irradiated sample with respect to that measured in non-irradiated sample of identical composition). A chromatogram of a standard solution of sandostatin was recorded after every 12 samples to ensure that no drift in the position of the major peak had occurred. The control measurements ruled out any ambiguity in interpreting the chromatograms.

catalase = target: T3, catalase (Bos taurus, UniProt P00432); assay: Activity recovery of catalase in dry formulations following gamma irradiation; type: physicochemical, bovine; conditions: for Enzyme activity remaining after gamma-irradiation: catalase 100 μg mL^−1 prior to drying, dry, 25-40 kGy
T3 construct: Catalase (from bovine liver, Sigma C9322, 2380 U /mg solid); purchased Sigma C9322; host or cells: bovine liver
T3 sequence (P00432 2-527 limits assumed): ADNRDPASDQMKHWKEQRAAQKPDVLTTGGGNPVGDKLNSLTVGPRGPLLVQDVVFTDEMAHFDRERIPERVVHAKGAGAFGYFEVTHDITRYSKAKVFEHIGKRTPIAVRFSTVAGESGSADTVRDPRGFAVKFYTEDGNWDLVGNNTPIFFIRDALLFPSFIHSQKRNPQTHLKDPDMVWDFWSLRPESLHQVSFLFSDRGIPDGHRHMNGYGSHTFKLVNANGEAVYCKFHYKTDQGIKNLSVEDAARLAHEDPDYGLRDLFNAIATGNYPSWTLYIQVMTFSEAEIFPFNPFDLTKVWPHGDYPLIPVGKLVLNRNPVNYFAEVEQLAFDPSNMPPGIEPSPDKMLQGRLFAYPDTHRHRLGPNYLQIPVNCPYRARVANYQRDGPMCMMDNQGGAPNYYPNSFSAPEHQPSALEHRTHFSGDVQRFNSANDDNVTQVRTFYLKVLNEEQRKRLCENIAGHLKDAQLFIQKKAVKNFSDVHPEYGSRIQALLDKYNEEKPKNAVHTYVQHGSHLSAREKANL
Description: as §1, §2
as §3, with “contained 100” for “contained 350”, “of catalase” for “of glucose oxidase”
Water was added to the sample to achieve 100 μg mL^−1 of catalase. 100 μL of the solution was added to a mixture of 18 mL of PBS and 2 mL of hydrogen peroxide (30 mM in water) in a 125 mL polypropylene pot and mixed. The resulting mixture was incubated at room temperature precisely for 30 min. In the meantime, the following reagents were mixed in a plastic cuvette for spectrophotometric measurements: • 2.73 mL of citrate/phosphate buffer (0.1 M, pH 5.0) • 100 μL of tetramethylbenzidine (TMB) (3 mg/mL, dissolved in dimethyl sulphoxide (DMSO)) • 100 μL of lactoperoxidase
Following the 30 min incubation period, 70 μL of the catalase containing mixture was added to the cuvette and absorbance was read in approximately 30 s. The results were expressed as percentage recovery, by reference to the absorbance measured in the fresh samples (i.e. prior to incubation at increased temperature).

[1] = cited from earlier work; for Rate constant k: Table 1, singlet oxygen scavengers, measured in specified solvents
[2] = Table 7, singlet oxygen scavengers
[3] = Table 5, singlet oxygen scavengers, ambient temperature
[4] = Table 8, singlet oxygen scavengers
[5] = Table 6, singlet oxygen scavengers, ambient temperature
[6] = Table 4, prior-art antioxidants, ambient temperature
[7] = Table 3, prior-art antioxidants, ambient temperature, vs non-irradiated
[8] = Table 11, superoxide scavengers
[9] = Table 12, superoxide scavengers
[10] = Table 10, superoxide scavengers

T1 sequence (P01241 27-217): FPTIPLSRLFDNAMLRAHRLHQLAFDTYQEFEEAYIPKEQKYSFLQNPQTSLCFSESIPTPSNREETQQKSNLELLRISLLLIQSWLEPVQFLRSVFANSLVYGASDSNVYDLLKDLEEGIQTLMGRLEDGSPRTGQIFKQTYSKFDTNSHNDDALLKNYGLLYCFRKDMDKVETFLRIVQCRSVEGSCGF
T2 sequence (P13006 17-605): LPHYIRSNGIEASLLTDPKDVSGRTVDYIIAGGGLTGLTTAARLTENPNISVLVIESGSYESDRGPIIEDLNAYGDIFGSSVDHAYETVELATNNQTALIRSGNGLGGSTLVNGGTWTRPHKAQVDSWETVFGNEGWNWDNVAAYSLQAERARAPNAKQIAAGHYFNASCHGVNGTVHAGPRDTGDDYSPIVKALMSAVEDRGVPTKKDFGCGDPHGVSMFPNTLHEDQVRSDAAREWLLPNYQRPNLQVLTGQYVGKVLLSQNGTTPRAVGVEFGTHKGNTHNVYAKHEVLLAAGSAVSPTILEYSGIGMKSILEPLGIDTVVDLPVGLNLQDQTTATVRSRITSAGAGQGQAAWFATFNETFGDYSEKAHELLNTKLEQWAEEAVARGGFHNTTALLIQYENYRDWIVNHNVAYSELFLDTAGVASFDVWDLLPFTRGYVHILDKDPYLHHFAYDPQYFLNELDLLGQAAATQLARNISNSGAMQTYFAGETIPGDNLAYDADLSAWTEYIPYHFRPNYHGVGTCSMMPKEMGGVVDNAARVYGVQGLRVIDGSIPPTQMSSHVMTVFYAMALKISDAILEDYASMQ

With `Cc1ncc(C[n+]2csc(CCO)c2C)c(N)n1` [Thiamine] the “Structural integrity remaining after gamma-irradiation (HPLC)” value (“Structural integrity remaining” below) (human growth hormone; [2]) was 48.8%, the “Enzyme activity remaining after gamma-irradiation” value (“Enzyme activity remaining” below) (glucose oxidase; [3]) was 43.1% and the “Enzyme activity remaining” value (Sandostatin; [4]) was 87.7%. For the same compound, the “Enzyme activity remaining” value (catalase; [5]) was 26.1%, the Rate constant k [1] was “k = 6 × 10^7 L mol^−1 s^−1” and the “Rate of reaction with singlet oxygen” value ([1]; Table 5) was 6e+07 M⁻¹ s⁻¹. For the same compound, the “Rate of reaction with singlet oxygen” value ([1]; Table 6) was 6e+07 M⁻¹ s⁻¹, the “Rate of reaction with singlet oxygen” value ([1]; Table 7) was 6e+07 M⁻¹ s⁻¹ and the “Rate of reaction with singlet oxygen” value ([1]; Table 8) was 6e+07 M⁻¹ s⁻¹.

In the case of `NC(=O)C1=CN([C@@H]2O[C@H](COP(=O)(O)OP(=O)(O)OC[C@H]3O[C@@H](n4cnc5c(N)ncnc54)[C@H](O)[C@@H]3O)[C@@H](O)[C@H]2O)C=CC1` [NADH], the Rate constant k [1] is listed as “k = 2 × 10^7 L mol^−1 s^−1”.

With `Cc1c(C)c2c(c(C)c1O)CCC(C)(C(=O)O)O2` (stereo not drawn) [Trolox] the “Structural integrity remaining” value (human growth hormone; [6]) was 49.6% and the “Enzyme activity remaining” value (glucose oxidase; [7]) was 45.9%.

For `C[C@H](N)C(=O)O` [Alanine], the “Enzyme activity remaining” value (glucose oxidase; [3]) is given as 15.3%, the “Enzyme activity remaining” value (catalase; [5]) is given as 8.8% and the Rate constant k [1] is given as “k = 3.0 × 10^7 L mol^−1 s^−1”. The “Rate of reaction with singlet oxygen” value ([1]; Table 5) was 3e+07 M⁻¹ s⁻¹ and the “Rate of reaction with singlet oxygen” value ([1]; Table 6) was 3e+07 M⁻¹ s⁻¹.

With `O=C(O)CC(O)(CC(=O)O)C(=O)O` [Citrate] the “Structural integrity remaining” value (human growth hormone; [8]) was 45.6%, the “Enzyme activity remaining” value (glucose oxidase; Table 9, superoxide scavengers) was 32.0% and the “Enzyme activity remaining” value (Sandostatin; [9]) was 91.8%. The “Enzyme activity remaining” value (catalase; [10]) was 39.5%.

For `O=S(=O)(O)c1cc(O)c(O)c(S(=O)(=O)O)c1` [Tiron], the “Structural integrity remaining” value (human growth hormone; [8]) was 55.7%, the “Enzyme activity remaining” value (glucose oxidase; Table 9, superoxide scavengers) was 27.5% and the “Enzyme activity remaining” value (Sandostatin; [9]) was 89.7%. The “Enzyme activity remaining” value (catalase; [10]) was 17.9%.

For `NCC(=O)NCC(=O)O` [Glycylglycine] (H-Gly-Gly-OH), the “Structural integrity remaining” value (human growth hormone; [6]) was 47.2% and the “Enzyme activity remaining” value (glucose oxidase; [7]) was 20.1%.

For `[Ni+2]` [Nickel (II) ion], the Rate constant k [1] is listed as “k = 3.3 × 10^7 L mol^−1 s^−1”.

For `N[C@@H](Cc1c[nH]cn1)C(=O)O` [Histidine], the “Structural integrity remaining” value (human growth hormone; [2]) was 55.5%, the “Enzyme activity remaining” value (glucose oxidase; [3]) was 57.9% and the “Enzyme activity remaining” value (Sandostatin; [4]) was 85.0%. The “Enzyme activity remaining” value (catalase; [5]) was 18.3%, the Rate constant k [1] was “k = 4.6 × 10^7 L mol^−1 s^−1” and the “Rate of reaction with singlet oxygen” value ([1]; Table 5) was 4.6e+07 M⁻¹ s⁻¹. The “Rate of reaction with singlet oxygen” value ([1]; Table 6) was 4.6e+07 M⁻¹ s⁻¹, the “Rate of reaction with singlet oxygen” value ([1]; Table 7) was 4.6e+07 M⁻¹ s⁻¹ and the “Rate of reaction with singlet oxygen” value ([1]; Table 8) was 4.6e+07 M⁻¹ s⁻¹.

For `CC(=O)CCCCn1c(=O)c2c(ncn2C)n(C)c1=O` [Pentoxyfylline, reference compound], the “Structural integrity remaining” value (human growth hormone; Table 15, ozone scavenger) was 46.0%, the “Enzyme activity remaining” value (glucose oxidase; Table 13, ozone scavengers) was 36.2% and the “Enzyme activity remaining” value (catalase; Table 14, ozone scavenger) was 77.0%.

In the case of `N[C@@H](CS)C(=O)O` [Cysteine anion], the Rate constant k [1] is given as “k = 1.5 × 10^8 L mol^−1 s^−1”.

For `[Cu+2]` [Copper(II) ion], the Rate constant k [1] is listed as “k = 6.4 × 10^7 L mol^−1 s^−1”.

In the case of `OC[C@@H](O)[C@@H](O)[C@H](O)[C@H](O)CO` [Mannitol], the “Structural integrity remaining” value (human growth hormone; [8]) was 28.3%, the “Enzyme activity remaining” value (glucose oxidase; Table 9, superoxide scavengers) was 17.2% and the “Enzyme activity remaining” value (Sandostatin; [9]) was 72.6%. The “Enzyme activity remaining” value (catalase; [10]) was 36.3%.

In the case of Silymarine, the “Structural integrity remaining” value (human growth hormone; [6]) was 63.0% and the “Enzyme activity remaining” value (glucose oxidase; [7]) was 46.3%.

With `Oc1nc(O)c2nc(O)[nH]c2n1` [Urate] the “Structural integrity remaining” value (human growth hormone; [6]) was 61.5% and the “Enzyme activity remaining” value (glucose oxidase; [7]) was 32.6%.

For `CC12CCC(CC1)C(C)(C)O2` [Eucaliptol], the “Enzyme activity remaining” value (glucose oxidase; Table 13, ozone scavengers) was 17.5% and the “Compatibility of the compound with catalase” value (catalase; as excipient in the formulation) was “inhibit catalase”.

For `O=C(O)CC(O)C(=O)O` (stereo not drawn) [Malate], the “Structural integrity remaining” value (human growth hormone; [8]) was 52.1%, the “Enzyme activity remaining” value (glucose oxidase; Table 9, superoxide scavengers) was 40.7% and the “Enzyme activity remaining” value (Sandostatin; [9]) was 87.7%. The “Enzyme activity remaining” value (catalase; [10]) was 40.9%.

In the case of `[N-]=[N+]=[N-]` [Azide anion], the Rate constant k [1] is listed as “k = 4.5 × 10^8 L mol^−1 s^−1”.
